This note sets out measurements from patent publication US8119624B2, “Fused phenyl amido heterocyclic compounds” (Pfizer Inc., priority 2006, dated 2012).

The target in the assay is T1, Full-length glucokinase (beta cell isoform) (Homo sapiens, UniProt P35557).
T1 construct: Full-length glucokinase (beta cell isoform) was His-tagged at N-terminus; His tag (N); made in house
T1 sequence (P35557 1-465): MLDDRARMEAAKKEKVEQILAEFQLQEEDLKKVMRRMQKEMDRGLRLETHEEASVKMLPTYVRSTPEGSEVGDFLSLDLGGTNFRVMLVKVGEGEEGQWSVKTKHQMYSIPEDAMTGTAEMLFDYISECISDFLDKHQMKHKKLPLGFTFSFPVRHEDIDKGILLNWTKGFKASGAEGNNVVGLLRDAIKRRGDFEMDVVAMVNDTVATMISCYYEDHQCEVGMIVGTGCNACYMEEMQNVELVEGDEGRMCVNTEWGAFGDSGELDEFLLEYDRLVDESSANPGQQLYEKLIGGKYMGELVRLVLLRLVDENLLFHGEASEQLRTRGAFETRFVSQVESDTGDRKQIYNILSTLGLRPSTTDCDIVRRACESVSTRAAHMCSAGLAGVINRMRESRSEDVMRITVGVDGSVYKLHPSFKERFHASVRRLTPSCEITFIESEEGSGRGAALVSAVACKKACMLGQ
Description: Glucokinase biochemical assay (PK/LDH-coupled, NADH depletion at 340 nm): % activation, EC50, % max activation. The conditions noted are these: 5 mM glucose; for activation at 10 µM: read-out: % Activation at 10 uM; for pEC50: read-out: EC50; for Emax: read-out: % Max Activation. Summed up:
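N-terminally His-tagged full-length human beta-cell glucokinase, room temperature, 5 mM glucose, 1 mM ATP, PK/LDH-coupled with 0.7 mM NADH, 1% DMSO final. Initial velocity from the 200–900 s slope of A340 decline. % activation = (Va/Vo−1)×100, measured across compound concentrations.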

Where [1] appears, read: 10 uM compound, % Activation=(Va/Vo−1)×100.

What is called pEC50 is −log10 of the EC50, conventionally taken in molar units.

Molecules are shown by their SMILES. pEC50: −log10 of the molar value. Where two headings read alike, the source gives them in different places.

As for `Cn1ncc(NC(=O)c2cc(Oc3ccc(S(=O)(=O)C4CC4)cc3)c3c(c2)OC(C)(CO)C3)n1` (stereo not shown) [Example 246, 4-(4-Cyclopropanesulfonyl-phenoxy)-2-hydroxymethyl-2-methyl-2,3-dihydro-benzofuran-6-carboxylic acid (2-methyl-2H-[1,2,3]triazol-4-yl)-amide], under setting [1], the activation at 10 µM amounted to 222%. The pEC50 (GK activation) was 6.80. The Emax (fitted maximum activation) was 261%.
With `COCC1Cc2c(Oc3ccc(C(=O)N(C)C)cc3)cc(C(=O)Nc3ccn(C)n3)cc2O1` (single isomer, unassigned; (+)) [Example 212, (+)-4-(4-Dimethylcarbamoyl-phenoxy)-2-methoxymethyl-2,3-dihydro-benzofuran-6-carboxylic acid (1-methyl-1H-pyrazol-3-yl)-amide], the “% Activation at 10 uM” value under setting [1] is on record as 111%. The pEC50 (GK activation) is 5.59. In addition, where the note is “fitted maximum activation”, the “% Max Activation” value is reported as 144%.
In the case of `Cn1ncc(NC(=O)c2cc(Oc3ccc(S(=O)(=O)C4CC4)cc3)c3c(c2)OC(C)(C)C3)n1` [Example 131, 4-(4-Cyclopropanesulfonyl-phenoxy)-2,2-dimethyl-2,3-dihydro-benzofuran-6-carboxylic acid (2-methyl-2H-[1,2,3]triazol-4-yl)-amide], under setting [1], the activation at 10 µM stood at 292%. The pEC50 (GK activation) is 6.68. The Emax (fitted maximum activation) was 272%.
For the compound `Cc1ccc(NC(=O)c2cc(OCc3ccccc3Cl)c3c(c2)OC(C)(C)CC3)nc1` [Example 374, 5-(2-Chloro-benzyloxy)-2,2-dimethyl-chroman-7-carboxylic acid(5-methyl-pyridin-2-yl)-amide], under setting [1], the “% Activation at 10 uM” value is 17.7%.
For `COC(=O)c1ccc(NC(=O)c2cc(Oc3ccc(S(C)(=O)=O)cc3)c3cc(C)oc3c2)nc1` [Example 264, Methyl 6-(2-methyl-4-(4-(methylsulfonyl)phenoxy)benzofuran-6-carboxamido)nicotinate], under setting [1], the activation at 10 µM amounted to 80.5%. Also, the pEC50 (GK activation) is 5.89. For the same compound, the Emax (fitted maximum activation) was 79%.
Consider `Cc1ccc(NC(=O)c2cc(Oc3ccc(C(=O)N(C)C)cc3)c3c(C)csc3c2)nc1` [Example 353, 4-{4-[(Dimethylamino)carbonyl]phenoxy}-3-methyl-N-(5-methylpyridin-2-yl)-1-benzothiophene-6-carboxamide], for which the activation at 10 µM under setting [1] came out at 3.4%.
For the compound `CC(C)CN1CCc2c(Oc3ccc(C(=O)N(C)C)c(F)c3)cc(C(=O)Nc3ccn(C)n3)cc2C1=O` [Example 392, 5-(4-(Dimethylcarbamoyl)-3-fluorophenoxy)-2-isobutyl-N-(1-methyl-1H-pyrazol-3-yl)-1-oxo-1,2,3,4-tetrahydroisoquinoline-7-carboxamide], the pEC50 (1 mM ATP, room temperature) was under 5.00. Moreover, the activation at 10 µM (compound at 10 uM, 1 mM ATP, room temperature) was 48.6%.
As for `Cc1ccc(NC(=O)c2cc3c(c(Oc4ccc(S(C)(=O)=O)cc4)c2)CCO3)nc1` [Example 8, 4-(4-Methanesulfonyl-phenoxy)-2,3-dihydro-benzofuran-6-carboxylic acid(5-methyl-pyridin-2-yl)-amide], the activation at 10 µM under setting [1] turned out to be 127%. Further, the pEC50 (GK activation) was 5.55. Also, the Emax (fitted maximum activation) turned out to be 100%.
On to `COCC1Cc2c(OC(C)C)cc(C(=O)Nc3ccn(C)n3)cc2O1` (stereo not shown) [Example 216, 4-Isopropoxy-2-methoxymethyl-2,3-dihydro-benzofuran-6-carboxylic acid (1-methyl-1H-pyrazol-3-yl)-amide], for which the activation at 10 µM under setting [1] turned out to be 13%.
Regarding `Cn1ccc(NC(=O)c2cc(Oc3cccc(S(C)(=O)=O)c3)c3c(c2)OC(C)(C)C3)n1` [Example 36, 4-(3-Methanesulfonyl-phenoxy)-2,2-dimethyl-2,3-dihydro-benzofuran-6-carboxylic acid(1-methyl-1H-pyrazol-3-yl)-amide], the activation at 10 µM under setting [1] was found to be 130%. Also, for the setting “GK activation”, the pEC50 is 5.96. In addition, where the note is “fitted maximum activation”, the Emax came out at 149%.
With `Cc1cc2c(Oc3ccc(C(=O)N(C)C)c(F)c3)cc(C(=O)Nc3ccn(C)n3)cc2s1` [Example 362, 4-(4-(Dimethylcarbamoyl)-3-fluorophenoxy)-2-methyl-N-(1-methyl-1H-pyrazol-3-yl)benzo[b]thiophene-6-carboxamide], the activation at 10 µM under setting [1] amounted to 25.9%.
Consider `CN(C)C(=O)c1cc2c(Oc3ccc(S(C)(=O)=O)cc3)cc(C(=O)Nc3cnn(C)n3)cc2o1` [Example 288, N2,N2-Dimethyl-4-[4-(methylsulfonyl)phenoxy]-N6-(2-methyl-2H-1,2,3-triazol-4-yl)-1-benzofuran-2,6-dicarboxamide], for which, under setting [1], the activation at 10 µM was found to be 161%. Under “GK activation”, the pEC50 is 5.77. Also, under “fitted maximum activation”, the Emax came to 188%.
As for `COc1ccnc(NC(=O)c2cc(Oc3ccc(S(=O)(=O)N4CCC4)cc3)c3cc(C)oc3c2)c1` [Example 295, 4-(4-(Azetidin-1-ylsulfonyl)phenoxy)-N-(4-methoxypyridin-2-yl)-2-methyl-benzofuran-6-carboxamide], the activation at 10 µM under setting [1] came out at 46.9%. For the same compound, under “GK activation”, the pEC50 was 6.44. For the same compound, the Emax (fitted maximum activation) is 50%.
Take `Cc1cc2cc(Oc3ccc(S(C)(=O)=O)cc3)cc(C(=O)Nc3ccn(C)n3)c2o1` [Example 4, 5-(4-Methanesulfonyl-phenoxy)-2-methyl-benzofuran-7-carboxylic acid(1-methyl-1H-pyrazol-3-yl)-amide]: the activation at 10 µM under setting [1] was 14.6%.
In the case of `Cn1ccc(NC(=O)c2cc(Oc3cc(F)ccc3S(C)(=O)=O)c3c(c2)OC(C)(CO)C3)n1` (stereo not shown) [Example 235, 4-(5-Fluoro-2-methanesulfonyl-phenoxy)-2-hydroxymethyl-2-methyl-2,3-dihydro-benzofuran-6-carboxylic acid (1-methyl-1H-pyrazol-3-yl)-amide], under setting [1], the activation at 10 µM was found to be 69.2%. The pEC50 (GK activation) was under 5.00.
For `Cn1ncc(NC(=O)c2cc(Oc3ccc(C(=O)N4CCC4)c(F)c3)c3c(c2)OC(C)(C)C3)n1` [Example 159, 4-[4-(Azetidine-1-carbonyl)-3-fluoro-phenoxy]-2,2-dimethyl-2,3-dihydro-benzofuran-6-carboxylic acid (2-methyl-2H-[1,2,3]triazol-4-yl)-amide], the activation at 10 µM under setting [1] was found to be 243%. For the same compound, for the setting “GK activation”, the pEC50 is 6.82. Where the note is “fitted maximum activation”, the Emax is 260%.
`Cc1ccc(NC(=O)c2cc(Oc3ccc(S(C)(=O)=O)c(F)c3)c3c(c2)OC(C)(C)C3)nc1` [Example 116, 4-(3-Fluoro-4-methanesulfonyl-phenoxy)-2,2-dimethyl-2,3-dihydro-benzofuran-6-carboxylic acid (5-methyl-pyridin-2-yl)-amide]: the activation at 10 µM under setting [1] stood at 110%. Also, the pEC50 (GK activation) is 7.14. In addition, the Emax (fitted maximum activation) was 112%.
Consider `Cc1ccc(NC(=O)c2cc(OC3CN(S(C)(=O)=O)C3)c3cc(C)oc3c2)nc1` [Example 326, 2-Methyl-N-(5-methylpyridin-2-yl)-4-{[1-(methylsulfonyl)-azetidin-3-yl]oxy}-1-benzofuran-6-carboxamide], for which the activation at 10 µM under setting [1] worked out at 76.9%. The pEC50 (GK activation) was 5.68. The Emax (fitted maximum activation) was 90%.
As to `COCC1Cc2c(Oc3ccc(S(C)(=O)=O)cc3)cc(C(=O)Nc3ccn(C)n3)cc2O1` (stereo not shown) [Example 201, 4-(4-Methanesulfonyl-phenoxy)-2-methoxymethyl-2,3-dihydro-benzofuran-6-carboxylic acid (1-methyl-1H-pyrazol-3-yl)-amide], the activation at 10 µM under setting [1] came out at 107%. For the same compound, the pEC50 (GK activation) was 5.55. Moreover, the Emax (fitted maximum activation) was determined as 137%.
The like results for `COCCN(C)C(=O)c1ccc(Oc2cc(C(=O)Nc3ccn(C)n3)cc3c2CC(C)(C)O3)cc1F` [Example 64, 4-{3-Fluoro-4-[(2-methoxy-ethyl)-methyl-carbamoyl]-phenoxy}-2,2-dimethyl-2,3-dihydro-benzofuran-6-carboxylic acid(1-methyl-1H-pyrazol-3-yl)-amide] were, in that order, 172%, 6.57 and 158%.
For the compound `COc1cnc(NC(=O)c2cc(Oc3ccc(S(=O)(=O)N(C)C)c(F)c3)c3cc(C)oc3c2)cn1` [Example 307, 4-{4-[(Dimethylamino)sulfonyl]-3-fluorophenoxy}-N-(5-methoxypyrazin-2-yl)-2-methyl-1-benzofuran-6-carboxamide], the activation at 10 µM under setting [1] was determined as 153%. Moreover, the pEC50 (GK activation) was 6.40. The Emax (fitted maximum activation) amounted to 156%.
Take `Cc1ccc(NC(=O)c2cc(Oc3ccc(S(C)(=O)=O)cc3)c3ncsc3c2)nc1` [Example 371, N-(5-Methylpyridin-2-yl)-4-[4-(methylsulfonyl)phenoxy]-1,3-benzothiazole-6-carboxamide]: under setting [1], the activation at 10 µM was 35.5%.
On to `COc1ccnc(NC(=O)c2cc(Oc3ccc(S(C)(=O)=O)cc3)c3cc(C(=O)N(C)C)oc3c2)c1` [Example 289, N6-(4-Methoxypyridin-2-yl)-N2,N2-dimethyl-4-[4-(methylsulfonyl)phenoxy]-1-benzofuran-2,6-dicarboxamide], for which the activation at 10 µM under setting [1] was found to be 73.8%. Moreover, the pEC50 (GK activation) was 5.11. For the same compound, the Emax (fitted maximum activation) turned out to be 133%.
